Here are results for 1 compound from patent EP4467137A1, “TREATMENT OF FRONTOTEMPORAL DEMENTIA OR FRONTOTEMPORAL LOBAR DEMENTIA” (Universidad Autónoma de Madrid, priority 2023, dated 2024).

The target of assay [1] is T1, human lipoxygenase-5 (hLOX-5) (Homo sapiens, UniProt P09917).
T1 sequence (P09917 1-674): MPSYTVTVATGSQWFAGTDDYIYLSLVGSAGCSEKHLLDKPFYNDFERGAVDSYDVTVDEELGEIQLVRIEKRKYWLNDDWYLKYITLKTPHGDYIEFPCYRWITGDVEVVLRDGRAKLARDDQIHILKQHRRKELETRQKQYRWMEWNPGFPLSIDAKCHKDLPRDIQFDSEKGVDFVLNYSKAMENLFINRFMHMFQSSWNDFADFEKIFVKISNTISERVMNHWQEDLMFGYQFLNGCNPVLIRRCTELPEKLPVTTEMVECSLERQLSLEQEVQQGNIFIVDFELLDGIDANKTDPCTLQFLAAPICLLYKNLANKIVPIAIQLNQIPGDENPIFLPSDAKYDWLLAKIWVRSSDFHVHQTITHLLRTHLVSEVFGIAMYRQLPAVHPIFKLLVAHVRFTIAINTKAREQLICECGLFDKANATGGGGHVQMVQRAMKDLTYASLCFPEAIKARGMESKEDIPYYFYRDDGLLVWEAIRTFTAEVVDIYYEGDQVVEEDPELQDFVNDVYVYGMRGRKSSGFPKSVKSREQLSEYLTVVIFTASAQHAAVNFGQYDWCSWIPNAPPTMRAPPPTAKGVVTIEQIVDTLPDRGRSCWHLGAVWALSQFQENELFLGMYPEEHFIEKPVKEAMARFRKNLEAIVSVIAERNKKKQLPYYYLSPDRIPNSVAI
Put plainly: Inhibition of human lipoxygenase-5. The class given is biochemical. Conditions: mean ± SD of three independent experiments in triplicate; read-out: LOX5 IC50. Here is the method: The inhibition of human lipoxygenase-5 (hLOX-5) was performed as described [Herrera-Arozamena, Clara et al. "Tuning melatonin receptor subtype selectivity in oxadiazolone-based analogues: Discovery of QR2 ligands and NRF2 activators with neurogenic properties." European journal of medicinal chemistry vol. 190 (2020): 112090. doi:10.1016/j.ejmech.2020.112090], Data are the mean ± SD of three independent experiments performed in triplicate.

The subject of assay [2] is TNF-α mRNA. In words: qRT-PCR of TNFα in LPS-exposed BV2 cells. The class given is cell-based, mouse. Conditions: 10 and 30 µM, 24 h LPS. As to the method:
• Figure 1. Compound 1 reduces the inflammatory response against LPS in vitro. (A) Nitric oxide (NO) production in BV2 cells detected by DAF 24 h after LPS exposure and normalized by cell viability measured by MTT (n = 9). (B) qRT-PCR of TNFα (n = 9) in BV2 cells after 24 h LPS exposure. Sulforaphane (Sfn) was used as a positive control. […] Compound 1 decreases the inflammatory process 4 and 24 hours after LPS administration in vivo. Compound 1 (20 mg·kg^-1) daily was injected i.p. four days before the i.p. LPS (0.5 mg·kg^-1) administration. […] Compound 1 ameliorates the resolution of the inflammatory process triggered by LPS. […] (B) Locomotion activity measured by line crossings of an imaginary grid. […] Compound 1 reduced tau seeding in HEK-293 tau FRET biosensor measured by flow cytometer (C). […] Representative images of hyperphosphorylated tau intensity measured by AT8 and AT180 antibodies in three different regions of the hippocampus (GD, CA3 and CA1) (n = 11-12). (B) Quantification AT8 intensity, normalized to CA3 intensity of Sham animals. (C) Quantification of AT180 intensity, normalized to CA3 intensity of Sham animals (n = 9-12). […] Quantification of sarkosyl soluble (n = 10) (C) and insoluble species (D) using AT8 antibody (n = 10). Quantification of sarkosyl soluble (n = 10) (E) and insoluble species (F) using AT180 antibody (n = 10). […]
(In general: In qPCR the cycle at which signal appears reflects the starting amount.)

Usually IC50 stands for the concentration that gives 50% inhibition. Consider `COc1ccc2c(c1)CC(c1c[nH]c3ccc(OC)cc13)N2` (centres unmarked) [Compound 1, 5-Methoxy-3-(5-methoxyindolin-2-yl)-1H-indole], for which the IC50 in assay [1] turned out to be 3.08 ± 0.29 µM. The “TNF-α mRNA” value in assay [2] is listed as “reduced”.
